Results taken from PubChem BioAssay AID206 (DTP/NCI, 2004).
Several values for one entry are separate records, joined by “and”; a condition that tells them apart may be missing. Identical values can stand only once. Results filed as inconclusive are left out.

Tested on: nude mice, HT29 intrarenal xenograft, tumor weight T/C
Assay: NCI In Vivo Anticancer Drug Screen. Data for tumor model HT29;CX-1 Human Adenocarcinoma (MER+) (intrarenal inoculation) in NU/NU Swiss (nude) mice
Conditions: endpoint: mean tumor weight change, higher = larger tumour
Procedure, shortened: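 Tumor-bearing mice received test compound or vehicle, and tumor size or survival was recorded. Values are the treated-group measurement divided by the vehicle-treated control measurement.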

[1] = dose: 150.0 mg/kg/injection, schedule: Q04DX004 (sc), vehicle: Klucel (hydroxypropylcellulose) (HPC)
[2] = dose: 300.0 mg/kg/injection, schedule: Q04DX004 (sc), vehicle: Klucel (hydroxypropylcellulose) (HPC)
[3] = dose: 100.0 mg/kg/injection, schedule: Q01DX010 (sc), vehicle: saline
[4] = dose: 75.0 mg/kg/injection, schedule: Q04DX004 (sc), vehicle: Klucel (hydroxypropylcellulose) (HPC)

CN1CCc2c(c3ccccc3c3ccccc23)C1
T/C [1]: 105 % of control
T/C [2]: 80 % of control
T/C (dose: 600.0 mg/kg/injection, schedule: Q04DX004 (sc), vehicle: Klucel (hydroxypropylcellulose) (HPC)): 111 % of control

C[CH2][Sn]([CH2]C)([CH2]C(=O)OC)[CH2]C(=O)OC
T/C (dose: 12.5 mg/kg/injection, schedule: Q04DX004 (sc), vehicle: saline with Tween-80): 79 % of control
T/C (dose: 25.0 mg/kg/injection, schedule: Q04DX004 (sc), vehicle: saline with Tween-80): 83 % of control
T/C (dose: 50.0 mg/kg/injection, schedule: Q04DX004 (sc), vehicle: saline with Tween-80): 79 % of control

NC(=O)c1ncn(C2OC(CO)C(O)C2O)n1 (stereo unspecified)
T/C (dose: 225.0 mg/kg/injection, schedule: Q04DX004 (sc), vehicle: saline): 93 % of control
T/C (dose: 450.0 mg/kg/injection, schedule: Q04DX004 (sc), vehicle: saline): 75 % of control
T/C (dose: 900.0 mg/kg/injection, schedule: Q04DX004 (sc), vehicle: saline): 61 % of control

CN(C)N=Nc1cn[nH]c1C(N)=O
T/C (dose: 300.0 mg/kg/injection, schedule: Q04DX004 (sc), vehicle: suspension in saline): 85 % of control
T/C (dose: 600.0 mg/kg/injection, schedule: Q04DX004 (sc), vehicle: suspension in saline): 67 % of control
T/C (dose: 1200.0 mg/kg/injection, schedule: Q04DX004 (sc), vehicle: suspension in saline): 74 % of control

CC[N+](CC)(CC)CC
T/C (dose: 3.0 mg/kg/injection, schedule: Q01DX010 (sc), vehicle: saline with Tween-80): 68 % of control
T/C (dose: 6.0 mg/kg/injection, schedule: Q01DX010 (sc), vehicle: saline with Tween-80): 104 % of control

CN1C(=O)CC2(CCN(CCCC(=O)c3ccc(F)cc3)CC2)C1=O
T/C (dose: 75.0 mg/kg/injection, schedule: Q04DX004 (sc), vehicle: suspension in saline): 120 % of control

Oc1ccccc1C=NCCC[N-]CCCN=Cc1ccccc1O.[Co]
T/C (dose: 25.0 mg/kg/injection, schedule: Q01DX010 (sc), vehicle: suspension in saline): 109 % of control
T/C (dose: 100.0 mg/kg/injection, schedule: Q01DX010 (sc), vehicle: suspension in saline): 73 % of control and 76 % of control

O=C(NO)c1ccc(O)c(O)c1
T/C (dose: 200.0 mg/kg/injection, schedule: Q04DX004 (sc), vehicle: water): 52 % of control
T/C (dose: 400.0 mg/kg/injection, schedule: Q04DX004 (sc), vehicle: water): 86 % of control

CCCC(=O)Nc1ncnc2c1ncn2C1OC2COP(=O)(O)OC2C1OC(=O)CCC (stereo unspecified)
T/C [3]: 106 % of control
T/C (dose: 200.0 mg/kg/injection, schedule: Q01DX010 (sc), vehicle: saline): 18 % of control
T/C (dose: 400.0 mg/kg/injection, schedule: Q01DX010 (sc), vehicle: saline): 80 % of control
T/C (dose: 800.0 mg/kg/injection, schedule: Q01DX010 (sc), vehicle: saline): 44 % of control

CC[C@](O)(C(=O)O)c1cc2n(c(=O)c1CO)Cc1cc3ccccc3nc1-2
T/C (dose: 31.25 mg/kg/injection, schedule: Q04DX004 (sc), vehicle: saline): 7 % of control
T/C (dose: 62.5 mg/kg/injection, schedule: Q04DX004 (sc), vehicle: saline): -10 % of control
T/C (dose: 125.0 mg/kg/injection, schedule: Q04DX004 (sc), vehicle: saline): -46 % of control

Cn1cnc([N+](=O)[O-])c1Sc1ncn[nH]1
T/C (dose: 200.0 mg/kg/injection, schedule: Q04DX004 (sc), vehicle: suspension in saline): 49 % of control

C(CC1CO1)C1CO1 (stereo unspecified)
T/C (dose: 50.0 mg/kg/injection, schedule: Q01DX010 (sc), vehicle: saline): 35 % of control
T/C [3]: 37 % of control

CN(C)c1ccc2c(N(C)C)cc(N(C)C)nc2c1
T/C [4]: 97 % of control

CCN(CC)c1ccc2cc(-c3nc4ccccc4n3C)c(=O)oc2c1
T/C [4]: 82 % of control
T/C [1]: 67 % of control
T/C [2]: 88 % of control

O=CC=O
T/C (dose: 50.0 mg/kg/injection, schedule: Q01DX010 (sc), vehicle: saline with Tween-80): 64 % of control
T/C (dose: 100.0 mg/kg/injection, schedule: Q01DX010 (sc), vehicle: saline with Tween-80): 66 % of control
T/C (dose: 200.0 mg/kg/injection, schedule: Q01DX010 (sc), vehicle: saline with Tween-80): 38 % of control
